Measurements taken from patent EP4778921A1, “SALT FORM AND CRYSTAL FORM OF NITROGEN-CONTAINING HETEROCYCLIC DERIVATIVE INHIBITOR, AND PREPARATION METHOD THEREFOR AND USE THEREOF” (Shanghai Hansoh Biomedical Co., Ltd., priority 2023, dated 2025).
In brackets after ≈: the same amount, converted by molar mass.

Legend:
Assay type in all cases: physicochemical
[1] = Solubility experiments in different media, crystal form A of free base; conditions: thermodynamic from solid
Experimental: 4.1 Experimental objective: The solubility of the crystal form A of free base in media such as pH1 buffer, artificial simulated gastric fluid (FaSSGF), fasted-state artificial simulated intestinal fluid (FaSSIF), and fed-state artificial simulated intestinal fluid (FeSSIF) was tested to provide a basis for the evaluation of the potential of the crystal form being manufactured as a drug.
4.2 Experimental scheme: About 1.0 mg of crystal form A of free base was weighed into 2 mL glass vials, and pH1 buffer solution, fasted-state artificial simulated intestinal fluid (FaSSIF), fed-state artificial simulated intestinal fluid (FeSSIF), and fasted-state simulated gastric fluid (FaSSGF) (1 mL for each medium) were added to each vial, respectively. The vials were placed on a micromixer for shaking overnight with the temperature set at 37°C. After 24 h, the sample solutions were filtered through 0.45 µm nylon filter membranes, and the filtrates were collected. The concentrations were determined by an external standard method and HPLC.

[2] = Stability experiment of solid crystal form A of free base; conditions: 60°C; room temperature, 92.5% RH; 50°C, RH = 75%; 5, 10, 20 and 30 days
Experimental: 2.1 Experimental objective: To investigate the physical and chemical stability for crystal form A of free base under the conditions of a high temperature of 60°C, room temperature and a high humidity of 92.5% RH and 50°C, RH = 75% for 5, 10, 20 and 30 days and provide a basis for the storage of the compound.
2.2 Experimental scheme: About 2 mg of crystal form A of free base was taken and investigated under the conditions of 60°C in an oven, room temperature and a high humidity of RH = 92.5%, and 50°C, RH = 75% for 5, 10, 20 and 30 days. The content was determined by HPLC and an external standard method, and the changes of related substances were calculated by a chromatographic peak area normalization method (see 1.2.3 for the chromatographic conditions).

[3] = Hygroscopicity experiment (crystal forms of salts and crystal form A of free base)
From the text: • 2.1 Experimental objective: The hygroscopicity of different crystal forms of salts of the compound was investigated under various relative humidity conditions to provide a basis for screening and storage of the crystal forms of salts of the compound. • 2.2 Experimental scheme: The crystal forms of salts of the compound were placed in saturated water vapor at different relative humidities to reach a dynamic equilibrium between the compound and the water vapor.
3.1 Experimental objective: The hygroscopicity of crystal form A of free base of the compound was investigated under various relative humidity conditions to provide a basis for screening and storage of the crystal forms of the compound.
3.2 Experimental scheme: The crystal form A of free base of the compound was placed in saturated water vapor at different relative humidities to reach a dynamic equilibrium between the compound and the water vapor. The percentage weight gain of the compound due to moisture absorption was calculated after the equilibrium.

A solubility at 24 h ([1]; fassgf or other biorelevant, FaSSGF (simulated gastric fluid, fasted), 37°C) of 8 µg/mL (≈ 14 µM), a solubility at 24 h ([1]; pH1 buffer, simulated gastric fluid, pH 1, 37°C) of 558 µg/mL (≈ 974 µM) and a solubility at 24 h ([1]; FaSSIF (simulated intestinal fluid, fasted), 37°C) of 10 µg/mL (≈ 17.4 µM) were found for `CC(C)c1c(F)cc(N2C[C@H](N(C)S(C)(=O)=O)[C@H]2C)c2cnc(Nc3ccnc(-c4cn(C)nc4Cl)n3)cc12` [crystal form A of free base, N-((2R,3S)-1-(3-((2-(3-chloro-1-methyl-1H-pyrazol-4-yl)pyrimidin-4-yl)amino)-6-fluoro-5-isopropylisoquinolin-8-yl)-2-methylazetidin-3-yl)-N-methylmethanesulphonamide] in this work. For the same compound, the solubility at 24 h ([1]; FeSSIF (simulated intestinal fluid, fed), 37°C) was 209 µg/mL (≈ 365 µM), the stability [2] was “excellent stability” and the “weight gain after moisture absorption” value ([3]; RH 80%) was “about 0.1719%”. The hygroscopicity ([3]; RH 80%, result in words) was “weak hygroscopicity” and the “crystal form transformation (XRPD pattern)” value ([3]; after 1 cycle of moisture absorption and desorption, 0-95% relative humidity) was “no crystal form transformation occurred”.
